Laboratory results taken from patent US20250179437A1, “L[…] FOR PRODUCING PRIMITIVE STREAK CELLS” (UNIVERSITY HEALTH NETWORK, priority 2023, published 2025).

Legend:
Format in all cases: cell-based, human
H1 hPSC line [1] = assay: Differentiation of hPSCs into primitive streak and definitive endoderm with or without Latrunculin A (flow cytometry)
From the text: Human pluripotent stem cell (hPSC) lines: For protocol optimization, the H1 hPSC line^1, purchased from WiCell Research Institute (Madison, USA) was employed. This work has received approval from the Stem Cell Oversight Committee (SCOC) as the focus of a Canadian Institutes of Health Research (CIHR) Canada Graduate Scholarship-Doctoral (CGS-D) award.
hPSC expansion and passage: Cells were cryopreserved in a media composed of 50% IMDM (Life Technologies #12440) or StemMACS iPS-brew XF (Miltenyi Biotec #130-104-368), 40% Fetal Bovine Serum (FBS, Gibco #12483-020), and 10% DMSO (Millipore Sigma #D2650). Cryopreserved hPSCs were thawed in DMEM:F12 (Wisent #319-085-CL) at a ratio of 1 mL cells: 9 mL media, centrifuged at 1000 revolutions per minute (RPM) for 5 minutes, and resuspended in StemMACS iPS-brew XF with 10 μM ROCK1/2 inhibitor (Y-27652, Tocris Biosciences #1254). Cells were maintained in monolayer culture in StemMACS iPS-brew XF media with daily media changes. Upon reaching full confluency, cells were passaged by single cell dissociation using TrypLE (Life Technologies #12605) with 1% DNase 1 mg/mL (Calbiochem 260913), centrifuged for 5 min at 1000 RPM, and resuspended in StemMACS iPS-brew XF with 10 μM ROCK1/2 inhibitor (Y-27652, Tocris Biosciences #1254). Cells were split at a cell line-specific ratio to ensure confluency within 2-3 days, upon which differentiation was initiated.
hPSC differentiation: On day 0, confluent cultures of hPSCs in monolayer format were washed with Calcium- and Magnesium-free dPBS (Corning #20-031-CV) and fed with media with or without Latrunculin A to generate primitive streak (day 1) and definitive endoderm (day 3). The media used at day 0, 1, and 2 are specified in the tables below (Tables 1.1-1.2). When reagents were obtained from suppliers as liquids, the concentration is provided as a percentage of reagent volume/base media volume. When reagents were provided as desiccated powders that required reconstitution, the concentration is specified in either mass or molarity per unit volume of fully reconstituted media. All media were supplemented with 1% vol/vol Gibco Penicillin-Streptomycin (ThermoFisher Scientific #15070063). […]
Dissociated cells in suspension culture were filtered through a 35 micrometer cell strainer, centrifuged, and the supernatant was discarded. […] Cells were analyzed on a BD LSRFortessa flow cytometer. […] Experimental data was analyzed using FlowJo Software (BD).
Cell-surface flow cytometry of hPSC-derived cells: Dissociated cells were directly incubated with directly conjugated primary antibodies (table 1.3) in staining buffer for 20 minutes at room temperature. Cells were then washed once, and resuspended in staining buffer containing 1:100,000 DAPI (Biotium #40043) and directly analyzed by flow cytometry. […]

H1 hPSC line [2] = assay: Differentiation of hPSC-derived definitive endoderm to pancreatic progenitors and beta-like cells (flow cytometry)
From the text: (§1) hPSC differentiation: On day 0, confluent cultures of hPSCs in monolayer format were washed with Calcium- and Magnesium-free dPBS (Corning #20-031-CV) and fed with media with or without Latrunculin A to generate primitive streak (day 1) and definitive endoderm (day 3). The media used at day 0, 1, and 2 are specified in the tables below (Tables 1.1-1.2). When reagents were obtained from suppliers as liquids, the concentration is provided as a percentage of reagent volume/base media volume. When reagents were provided as desiccated powders that required reconstitution, the concentration is specified in either mass or molarity per unit volume of fully reconstituted media. All media were supplemented with 1% vol/vol Gibco Penicillin-Streptomycin (ThermoFisher Scientific #15070063).
(§2) Following definitive endoderm formation, cells were treated with differentiation media to generate either pancreatic or lung cells.
In an embodiment, the method comprises steps for differentiate the endodermal cell population to pancreatic cells. For example, as described herein differentiation from a an endodermal cell at day 3 differentiation to pancreatic lineages involves a series of steps that will differentiate cells to pancreatic progenitors cells at day 12-13 as described by Nostro et al 2015^2 or Yung and Poon 2019^3 and endocrine cells from day 20 onwards as described by Rezania et al 20144, Pagliuca et al., 2014^5, Hogrebe et al. 2020^6 or Balboa et al., 2022^7, where typically stage 1 is known to generate definitive endoderm, stage 4 is known to generate pancreatic progenitors and stage 6 is known to generate islet-like cells. Stage 2 can span for example 2 to 3 days and stage 3 can span for example 1 to 4 days. Stage 2 for example can include contacting the population to be differentiated (e.g. the Stage 1 endoderm cells) with Fibroblast Growth Factor 10 (FGF10), optionally wingless-type MMTV integration site family member 3A (Wnt3a), optionally Retinoic acid (RA), optionally Activin A, and optionally Dorsomorphin to produce Stage 2 differentiated cells. […]

H1 hPSC line [3] = assay: Differentiation of hPSC-derived definitive endoderm to NKX2-1+ lung progenitors (flow cytometry, immunofluorescence); conditions: vs definitive endoderm generated in the absence of LatA
From the text: as §1, §2
In an embodiment, the method comprises steps for differentiate the endodermal cell population to lung cells. […]
Dissociated cells in suspension culture were filtered through a 35 micrometer cell strainer, centrifuged, and the supernatant was discarded. […] Cells were analyzed on a BD LSRFortessa flow cytometer. […] Experimental data was analyzed using FlowJo Software (BD). […]

[4] = day 13, vs control without LatA

C/C1=C/C(=O)O[C@@H]2C[C@@H](CC[C@H](C)/C=C\C=C\CC1)O[C@@](O)([C@@H]1CSC(=O)N1)C2 [Latrunculin A]
efficiency of primitive streak cell generation (H1 hPSC line [1]; Latrunculin A-treated hPSCs): high efficiencies | BRA+ primitive streak cells generated (H1 hPSC line [1]; high-density hPSCs, MEF-free, LatA at day 0, 24 hours after starting differentiation): nearly pure populations | frequency of FOXA2+SOX17+ definitive endoderm (DE)-like cells (H1 hPSC line [1]; high-density hPSCs, day 3 of differentiation, vs control without LatA): significantly higher frequencies | impairment of high-density cells in their ability to generate BRA+ cells (H1 hPSC line [1]; high-density vs low-density hPSCs, LatA treatment at day 0): completely abrogated | PDX1−NKX6-1− cells (H1 hPSC line [2]; [4]): greatly reduced | frequency of PDX1+NKX6.1+ hPSC-derived pancreatic progenitors (H1 hPSC line [2]; [4]): greater frequency | frequency of NKX6-1+CPEP+ beta-like cells (H1 hPSC line [2]; day 23 of differentiation, vs control protocol): greater frequency | frequency of NKX2-1+ lung progenitors (H1 hPSC line [3]): much higher frequencies
